Reference: PubChem BioAssay AID264 (DTP/NCI, 2004)
Where “and” joins values, the source holds several entries; their conditions need not be identical. Equal values may be shown once. Inconclusive results are not listed.

Tested on: nude mice, LX-1 lung xenograft intrarenal, tumor weight T/C
Test: NCI In Vivo Anticancer Drug Screen. Data for tumor model Human Lung LX-1 Xenograft (intrarenal inoculation) in NU/NU Swiss (nude) mice
Conditions: endpoint: mean tumor weight change, higher = larger tumour
Procedure, shortened: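 Readout: T/C, i.e. treated-group tumor measurement over vehicle-control measurement. Mice bearing transplantable tumors were dosed with compound or vehicle.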

[1] = dose: 50.0 mg/kg/injection, schedule: Q04DX003 (sc), vehicle: saline with Tween-80
[2] = dose: 100.0 mg/kg/injection, schedule: Q04DX003 (sc), vehicle: saline with Tween-80
[3] = dose: 200.0 mg/kg/injection, schedule: Q04DX003 (sc), vehicle: saline with Tween-80
[4] = dose: 300.0 mg/kg/injection, schedule: Q04DX003 (sc), vehicle: saline with Tween-80
[5] = dose: 600.0 mg/kg/injection, schedule: Q04DX003 (sc), vehicle: saline with Tween-80
[6] = dose: 2400.0 mg/kg/injection, schedule: Q04DX003 (sc), vehicle: saline with Tween-80
[7] = dose: 150.0 mg/kg/injection, schedule: Q04DX003 (sc), vehicle: saline

**Q.** What does the source list for C/C=C/c1cc2c(c(=O)o1)C(=O)[C@@H](O)[C@H](C)O2?
**A.** T/C (dose: 25.0 mg/kg/injection, schedule: Q04DX003 (sc), vehicle: saline with Tween-80): 92 % of control; T/C [1]: 95 % of control; T/C [2]: 75 % of control and 97 % of control; T/C [3]: 82 % of control and 87 % of control

**Q.** Which T/C [1] does the source give for C1OCN2CSCC12 (stereo unspecified) here?
**A.** The T/C was 76 % of control.

**Q.** What about the T/C [2] of the same molecule?
**A.** The T/C was 103 % of control.

**Q.** What about the T/C [3] of the same molecule?
**A.** The T/C was 71 % of control.

**Q.** What about the T/C (dose: 400.0 mg/kg/injection, schedule: Q04DX003 (sc), vehicle: saline with Tween-80) of the same molecule?
**A.** Its T/C is 63 % of control.

**Q.** Which T/C (dose: 3.0 mg/kg/injection, schedule: Q04DX003 (sc), vehicle: suspension in saline) does the source give for CCCNC1=C(C)C(=O)C2=C(C1=O)[C@H](COC(N)=O)[C@]1(OC)[C@@H]3N[C@@H]3CN21 here?
**A.** The T/C was 32 % of control.

**Q.** And the T/C (dose: 24.0 mg/kg/injection, schedule: Q04DX003 (sc), vehicle: suspension in saline)?
**A.** Its T/C is 5 % of control and 17 % of control and 28 % of control.

**Q.** What does the source list for CCC(=O)Sc1ccccc1C(=O)Nc1ccc(Cl)cc1?
**A.** T/C [4]: 97 % of control; T/C [5]: 91 % of control; T/C [6]: 98 % of control

**Q.** O=NN(CCCl)C(=O)NC1[C@H](O)CCC[C@@H]1O (stereo partly specified) was tested. Which T/C (dose: 5.0 mg/kg/injection, schedule: Q04DX003 (sc), vehicle: saline) did it give?
**A.** The T/C was 25 % of control and 30 % of control and 48 % of control.

**Q.** O=C1NC2(CCCCC2)C(=O)N1CCN(CCCl)CCCl was tested. Which T/C (dose: 4.0 mg/kg/injection, schedule: Q01DX010 (sc), vehicle: suspension in saline) did it give?
**A.** The T/C was 524 % of control.

**Q.** What about the T/C (dose: 6.0 mg/kg/injection, schedule: Q01DX010 (sc), vehicle: saline) of the same molecule?
**A.** Its T/C is 85 % of control.

**Q.** And the T/C (dose: 6.0 mg/kg/injection, schedule: Q01DX010 (sc), vehicle: suspension in saline)?
**A.** The T/C was 39 % of control and 58 % of control.

**Q.** And the T/C (dose: 8.0 mg/kg/injection, schedule: Q01DX010 (sc), vehicle: suspension in saline)?
**A.** The T/C was 244 % of control.

**Q.** And the T/C (dose: 12.0 mg/kg/injection, schedule: Q01DX010 (sc), vehicle: saline)?
**A.** Its T/C is 31 % of control.

**Q.** What about the T/C (dose: 16.0 mg/kg/injection, schedule: Q01DX010 (sc), vehicle: suspension in saline) of the same molecule?
**A.** The T/C was 115 % of control.

**Q.** What about the T/C (dose: 32.0 mg/kg/injection, schedule: Q01DX010 (sc), vehicle: suspension in saline) of the same molecule?
**A.** Its T/C is 63 % of control.

**Q.** What does the source list for Nc1n[nH]c(N)n1?
**A.** T/C (dose: 200.0 mg/kg/injection, schedule: Q01DX010 (sc), vehicle: saline): 109 % of control; T/C (dose: 400.0 mg/kg/injection, schedule: Q01DX010 (sc), vehicle: saline): 106 % of control; T/C (dose: 800.0 mg/kg/injection, schedule: Q01DX010 (sc), vehicle: saline): 84 % of control

**Q.** With CC1=CC(C)(C)Nc2ccc(CSc3ccccc3)cc21 as the molecule, how does the T/C (dose: 75.0 mg/kg/injection, schedule: Q01DX010 (sc), vehicle: saline + Tween-80 + alcohol) read?
**A.** The T/C was 105 % of control.

**Q.** And the T/C (dose: 150.0 mg/kg/injection, schedule: Q01DX010 (sc), vehicle: saline + Tween-80 + alcohol)?
**A.** Its T/C is 105 % of control.

**Q.** What about the T/C (dose: 300.0 mg/kg/injection, schedule: Q01DX010 (sc), vehicle: saline + Tween-80 + alcohol) of the same molecule?
**A.** The T/C was 85 % of control.

**Q.** Which results are given for CC1=NN(c2cccc(S(=O)(=O)O)c2)C(=O)C1N=Nc1cc(Cl)cc(S(=O)(=O)O)c1O.CC1=NN(c2cccc(S(=O)(=O)O)c2)C(=O)C1N=Nc1cc(Cl)cc(S(=O)(=O)O)c1O.[Cr] (stereo unspecified)?
**A.** T/C [7]: 171 % of control; T/C (dose: 300.0 mg/kg/injection, schedule: Q04DX003 (sc), vehicle: saline): 152 % of control; T/C (dose: 600.0 mg/kg/injection, schedule: Q04DX003 (sc), vehicle: saline): 110 % of control

**Q.** For O=c1cc(-c2ccccc2)[nH]c2c1CCCC2, which T/C [4] is on record?
**A.** Its T/C is 114 % of control.

**Q.** What about the T/C [5] of the same molecule?
**A.** Its T/C is 113 % of control.

**Q.** And the T/C (dose: 1200.0 mg/kg/injection, schedule: Q04DX003 (sc), vehicle: saline with Tween-80)?
**A.** Its T/C is 113 % of control.

**Q.** And the T/C [6]?
**A.** Its T/C is 106 % of control.

**Q.** Which T/C (dose: 18.75 mg/kg/injection, schedule: Q04DX003 (sc), vehicle: saline) does the source give for Cc1ncc(CNC(=O)N(CCCl)N=O)c(N)n1 here?
**A.** The T/C was 61 % of control.

**Q.** Which results are given for COc1cc(NCCCCCCCNC(C)C)c2nccc(C)c2c1?
**A.** T/C (dose: 37.5 mg/kg/injection, schedule: Q04DX003 (sc), vehicle: saline): 105 % of control; T/C [7]: 87 % of control

**Q.** Which results are given for Cc1ccc(NCCN(C)C)c2c(=O)c3cc(O)ccc3sc12?
**A.** T/C (dose: 75.0 mg/kg/injection, schedule: Q04DX003 (sc), vehicle: Klucel (hydroxypropylcellulose) (HPC)): 97 % of control; T/C (dose: 150.0 mg/kg/injection, schedule: Q04DX003 (sc), vehicle: Klucel (hydroxypropylcellulose) (HPC)): 68 % of control; T/C (dose: 300.0 mg/kg/injection, schedule: Q04DX003 (sc), vehicle: Klucel (hydroxypropylcellulose) (HPC)): 72 % of control; T/C (dose: 600.0 mg/kg/injection, schedule: Q04DX003 (sc), vehicle: Klucel (hydroxypropylcellulose) (HPC)): 84 % of control
